Assay results: patent US12582647B2, “Systems and methods for treating an opioid-induced adverse pharmacodynamic response” (Purdue Pharma L.P., priority 2012, dated 2026)

Legend:
rat gastric emptying = assay: Stomach weight after charcoal meal (gastric emptying); format: in vivo, male Sprague-Dawley rats; conditions: morphine sulfate 1-10 mg/kg SC 0.5 h before charcoal meal, vs vehicle; FIG. 1B
Description: Morphine sulfate (1-10 mg/kg) or 0.9% normal saline (vehicle) was administered SC to the test subjects. 0.5 hour later, a charcoal meal (1 ml/100 grams) was administered PO to the test subjects. One hour after the charcoal meal, the test subjects were euthanized by CO2 and the stomachs were removed and weighed. Data were analyzed using a one-way ANOVA followed by the Dunnett's Multiple Comparisons test where *P<0.05, **P<0.01 and ***P<0.001. […] This effect was dose dependent with a greater magnitude of effect observed with increasing dose.

[1] = tested on: acute thermal pain in the rat; assay: Rat hot plate assay (response latency, % MPE)
Description: Morphine sulphate (1-10 mg/kg) was dissolved in 0.9% normal saline solution (NSS)(vehicle) and administered SC 1 hour prior to testing against vehicle. Data were analyzed by a two-way ANOVA using a Bonferroni Multiple Comparison Test,***P<0.001.
Morphine sulphate (1-10 mg/kg) was dissolved in 0.9% normal saline solution (NSS)(vehicle) and administered SC 1 hour prior to testing against vehicle. % MPE=Percent Maximum Possible Effect. % MPE=(test latency-baseline)/(cutoff-baseline). Data was analyzed using a Bonferroni Multiple Comparison Test,***P<0.001.
Morphine sulphate (10 mg/kg), the positive control, was dissolved in 0.9% NSS (vehicle). The formulations were administered SC 1 hour prior to testing against vehicle. Data were analyzed by a two-way ANOVA using a Bonferroni multiple comparisons test, where *P<0.05 and ***P <0.001. Data are represented as the means+S.E.M.
Morphine sulphate (10 mg/kg) was dissolved in 0.9% NSS (vehicle). The formulations were administered SC 1 hour prior to testing against vehicle. % MPE=Percent Maximum Possible Effect. % MPE=(test latency-baseline)/(cutoff (30 s)-baseline). Data were analyzed by a two-way ANOVA using Bonferroni Multiple Comparisons test for post-hoc analysis, where *P<0.05 and ***P<0.001. Data are represented as the means+SEM.
The positive control, morphine sulfate in 0.9% NS, was administered SC 1 hour prior to testing. Rats were assessed one day prior (BL) and then 1, 3 and 5 hours post-dosing. Hot Plate was set to 52° C. and cutoff was 30 seconds. Data were analyzed by a two-way ANOVA using a Bonferroni Multiple Comparisons Test, where *P<0.05, ***P<0.001 and ****P<0.0001 versus vehicle. Data are represented as the means+S.E.M from two combined studies.
Oxycodone hydrochloride (0.3-5 mg/kg) was dissolved in 0.9% normal saline solution (NSS)(vehicle) and administered SC 1 hour prior to testing against vehicle. Hot plate was set to 52° C. and cutoff was 30 seconds. Data were analyzed by a two-way ANOVA using a Bonferroni multiple comparisons test, where ****P<0.0001. Data are represented as the means+S.E.M.
Compound was administered SC 1 hour prior to testing. Oxycodone hydrochloride (0.3-5 mg/kg) was dissolved in 0.9% normal saline solution (NSS)(vehicle) and administered SC 1 hour prior to testing against vehicle. Hot plate was set to 52° C. and cutoff was 30 seconds. % MPE=. Percent Maximum Possible Effect. % MPE=(test latency-baseline)/(cutoff (30 s)-baseline). Data were analyzed by a two-way ANOVA using Bonferroni Multiple Comparisons test for post-hoc analysis, ****P<0.000. Data are represented as the means+SEM.
Oxycodone HCl was administered SC 1 hour prior to testing. Thermal latency was assessed the day prior (BL) and then 1, 3 and 5 hours post-oxycodone dosing. The hotplate was set to 52° C. and the cutoff was 30 seconds. Oxycodone was dissolved in 0.9% NS (vehicle). […] Data were analyzed by a two-way ANOVA using the Bonferroni Multiple Comparisons test for post-hoc analysis where, ***P<0.001. Data are represented as the means+SEM.
Oxycodone HCl was administered PO 1 hour prior to testing, while morphine sulfate, the positive control, was administered SC 1 hour prior to testing. Behavior was assessed the day prior (BL) and then 1, 3, 5 and 24 hours post-compound administration. The hot plate was set to 52° C. and the cutoff was 30 seconds. Oxycodone was dissolved in water (vehicle), while morphine sulfate was dissolved in 0.9% NS. Data were analyzed by a two-way ANOVA using a Bonferroni Multiple Comparisons Test, where ****P<0.0001.
Rats were assessed for thermal latency the day prior to dosing, then 1.5, 3 and 5 hours post-morphine administration. Data were analyzed by a two-way ANOVA using the Bonferroni Multiple Comparisons Test, where ****P<0.0001 compared to vehicle+vehicle.

[2] = tested on: acute thermal pain in the rat; assay: Rat tail flick assay (response latency, % MPE)
Description: Morphine sulphate (1-10 mg/kg) was dissolved in 0.9% normal saline solution (NSS)(vehicle) and administered SC 1 hour prior to testing against vehicle. Data were analyzed by a two-way ANOVA using a Bonferroni post-hoc test, *P<0.05, ***P<0.001.
Morphine sulphate (1-10 mg/kg) was dissolved in 0.9% normal saline solution (NSS)(vehicle) and administered SC 1 hour prior to testing against vehicle. % MPE=Percent of Maximum Possible Effect. % MPE=(test latency-baseline)/(cutoff(20 s)-baseline)*100. Data were analyzed by a two-way ANOVA using a Bonferroni post-hoc test, *P<0.05, **P<0.01, ***P<0.001.
Morphine sulphate (10 mg/kg) was dissolved in 0.9% NSS (vehicle). The formulations were administered SC 1 hour prior to testing against vehicle. Data were analyzed by a two-way ANOVA using a Bonferroni multiple comparisons test, *P<0.05, ***P<0.001.
Morphine sulphate (10 mg/kg) was dissolved in 0.9% NSS (vehicle). The formulations were administered SC 1 hour prior to testing against vehicle. % MPE=Percent Maximum Possible Effect. % MPE=(test latency-baseline)/(cutoff(20 s)-baseline)*100. Data were analyzed by a two-way ANOVA using a Bonferroni multiple comparisons test, ***P<0.001.
The positive control, morphine sulfate in 0.9% NS was administered SC 1 hour prior to testing. Rats were assessed the day prior (BL) and then 1, 3 and 5 hours post-dosing. Tail Flick was set to 40 intensity and cutoff 20 seconds. Data were analyzed by a two-way ANOVA using a Bonferroni Multiple Comparisons Test, where *P<0.05,***P<0.001 and ****P<0.0001. Data are represented as the means+S.E.M of two combined studies.
Oxycodone hydrochloride (0.3-5 mg/kg) was dissolved in 0.9% normal saline solution (NSS)(vehicle) and administered SC 1 hour prior to testing against vehicle. Data were analyzed by a two-way ANOVA using a Bonferroni multiple comparisons test, ****P<0.001.
Oxycodone hydrochloride (0.3-5 mg/kg) was dissolved in 0.9% normal saline solution (NSS)(vehicle) and administered SC 1 hour prior to testing against vehicle. % MPE=Percent Maximum Possible Effect. % MPE=(test latency-baseline)/(cutoff(20 s)-baseline)*100. Data were analyzed by a two-way ANOVA using a Bonferroni multiple comparisons test, ****P<0.001.
Oxycodone HCl and vehicle were administered SC 1 hour prior to testing. Rats were assessed one day prior (BL) and then 1, 3 and 5 hours post-oxycodone administration. The tail flick was set to an intensity of 40 and the cutoff was 20 seconds. Oxycodone was dissolved in 0.9% (vehicle). […] Data were analyzed by a two-way ANOVA followed by the Bonferroni Multiple Comparisons Test where, *P<0.05 and ****P<0.001.
Oxycodone HCl was administered PO 1 hour prior to testing, while morphine sulfate, the positive control, was administered SC 1 Hour prior to testing. Behavior was assessed the day prior (BL) to dosing, and then 1, 3, 5 and 24 hours post-compound administration. The tail flick was set to an intensity of 40 and 20 seconds was used as the cutoff. Oxycodone was dissolved in water (vehicle), while morphine was dissolved in 0.9% NS. Data were analyzed by a two-way ANOVA using a Bonferroni Multiple Comparisons Test, where *P<0.05, **P<0.01, ***P<0.001 and ****P<0.0001.
Rats were assessed for tail flick latency the day prior to dosing, then 1.5, 3 and 5 hours post-morphine administration. Data were analyzed by a two-way ANOVA using the Bonferroni Multiple Comparisons Test, where ****P<0.0001 compared to vehicle+vehicle. Data are represented as the means+S.E.M.
Rats were assessed for thermal latency 1.5, 3 and 5 hours post-morphine administration. % MPE=Percent Maximum Possible Effect. % MPE=(test latency-baseline)/(cutoff(20 s)-baseline)*100. Data were analyzed by a two-way ANOVA using a Bonferroni multiple comparisons test for post-hoc analysis where *P<0.05 and ****P<0.001. Data are represented as the means+SEM.
Rats were tested 1 hour after oxycodone injection.

rat GI transit = assay: Charcoal meal GI transit in the rat, single agent; conditions: for GI transit: % of the small intestine travelled by a charcoal meal: vs vehicle
Description: Rats were dosed with Oxycodone HCl/Oxy or vehicle (water) PO once daily for 5 days (chronic). Additional groups were dosed only once on day 5 (acute). […] One hour after charcoal, all rats were euthanized by CO2 and the GI tract was removed from the stomach to the cecum. The length of the small intestine and the distance (cm) to the leading edge of charcoal was recorded. Data were analyzed using a one-way ANOVA with Bonferonni's Multiple Comparison Test where * P<0.05, ****P<0.0001 vs. vehicle (chronic), ###vs. oxycodone (acute). Data are represented as the means+S.E.M.

SMILES | stomach weight (gastric emptying) (rat gastric emptying) | hot plate latency to nocifensive response ([1]; morphine sulphate 1-10 mg/kg SC 1 h prior to testing, FIG. 2A) | hot plate % of the maximal possible effect (% MPE) ([1]; morphine sulphate 1-10 mg/kg SC 1 h prior to testing, FIG. 2B) | tail flick latency to nocifensive response ([2]; morphine sulphate 1-10 mg/kg SC 1 h prior to testing, FIG. 3A) | tail flick % of the maximal possible effect (% MPE) ([2]; morphine sulphate 1-10 mg/kg SC 1 h prior to testing, FIG. 3B) | GI transit: % of the small intestine travelled by a charcoal meal (rat GI transit; morphine sulfate 1-10 mg/kg SC 0.5 h before charcoal meal, FIG. 1A) | rats found dead ([1]; oxycodone HCl 10 mg/kg SC, at the 3 hr time point) | hot plate MED (mitigates acute pain) ([1]; oxycodone HCl PO, FIG. 8D) | hot plate MED (mitigates acute pain) ([1]; oxycodone HCl SC, FIG. 8C) | hot plate latency to nocifensive response ([1]; oxycodone hydrochloride 0.3-5 mg/kg SC 1 h prior to testing, FIG. 8A) | hot plate % of the maximal possible effect (% MPE) ([1]; oxycodone hydrochloride 0.3-5 mg/kg SC 1 h prior to testing, FIG. 8B) | rats found dead ([2]; oxycodone HCl 10 mg/kg SC dosing group, at the 3 hr time point) | tail flick MED (mitigates acute pain) ([2]; oxycodone HCl PO, FIG. 9D) | tail flick MED (mitigates acute pain) ([2]; oxycodone HCl SC, FIG. 9C) | tail flick latency to nocifensive response ([2]; oxycodone hydrochloride 0.3-5 mg/kg SC 1 h prior to testing, FIG. 9A) | tail flick % of the maximal possible effect (% MPE) ([2]; oxycodone hydrochloride 0.3-5 mg/kg SC 1 h prior to testing, FIG. 9B) | tolerance to inhibition of GI transit (rat GI transit; oxycodone HCl PO once daily for 5 days (chronic) vs single dose on day 5 (acute), FIG. 7D) | GI transit: % of the small intestine travelled by a charcoal meal (rat GI transit; oxycodone hydrochloride 0.3-5 mg/kg SC 1 h before charcoal meal, FIG. 7A)
CN1CC[C@]23c4c5ccc(O)c4O[C@H]2[C@@H](O)C=C[C@H]3[C@H]1C5.O=S(=O)(O)O [morphine, morphine sulphate] | increased stomach weight due to delayed gastric emptying | provides analgesia | provides analgesia | provides analgesia | provides analgesia | decreases gastrointestinal transit |  |  |  |  |  |  |  |  |  |  |  | 
COc1ccc2c3c1O[C@H]1C(=O)CC[C@@]4(O)[C@@H](C2)N(C)CC[C@]314.Cl [oxycodone, oxycodone hydrochloride] |  |  |  |  |  |  | 4 out of 10 | 10 mg/kg | 3 mg/kg | provides analgesia | provides analgesia | 4 out of 10 | 10 mg/kg | 3 mg/kg | provides analgesia | provides analgesia | produces some tolerances to its acute effect on the inhibition of GI transit | decreases gastrointestinal transit
